pIC50: −log10 of the molar value. Counter-ions that a name gives are not always drawn.
Test system: KMS.12.BM cells
Experiment: KMS.12.BM cell viability assay
Format: cell-based
Conditions: 72 h; KMS.12.BM human myeloma cells, 3 days, Cell Titer-GLO ATP quantitation; read-out: KMS cellular IC50
Outline: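 IC50 derived from luminescent ATP quantitation (Cell Titer-GLO) of viable cells after 3-day compound treatment. KMS.12.BM human myeloma line seeded at 5000 cells/well in RPMI with 10% FBS.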

Compound | pIC50
Cc1nnc2ccc3c(cc(-c4ccn(C5(CC#N)CN(S(C)(=O)=O)C5)n4)n3Cc3cccc(Cl)c3)n12 [Example 107, [3-{3-[6-(3-chlorobenzyl)-1-methyl-6H-pyrrolo[2,3-e][1,2,4]triazolo[4,3-a]pyridin-7-yl]-1H-pyrazol-1-yl}-1-(methylsulfonyl)azetidin-3-yl]acetonitrile] | ≥ 6.00
CC(=O)N1CC(n2ccc(-c3cc4c(ccc5nnc(C)n54)n3Cc3cccc(Cl)c3)n2)C1 [Example 108, 7-[1-(1-acetylazetidin-3-yl)-1H-pyrazol-3-yl]-6-(3-chlorobenzyl)-1-methyl-6H-pyrrolo[2,3-e][1,2,4]triazolo[4,3-a]pyridine] | ≥ 6.00
CCNC(=O)c1cc2c(ccc3nnc(C)n32)n1Cc1cccc(Cl)c1 [Example 113, 6-(3-Chlorobenzyl)-N-ethyl-1-methyl-6H-pyrrolo[2,3-e][1,2,4]triazolo[4,3-a]pyridine-7-carboxamide trifluoroacetate salt] | ≥ 6.00
Cc1nnc2ccc3c(cc(C(=O)NCC4CC4)n3Cc3cccc(Cl)c3)n12 [Example 114, 6-(3-Chlorobenzyl)-N-(cyclopropylmethyl)-1-methyl-6H-pyrrolo[2,3-e][1,2,4]triazolo[4,3-a]pyridine-7-carboxamide trifluoroacetate salt] | ≥ 6.00
Cc1nnc2ccc3c(cc(C(=O)NCCO)n3Cc3cccc(Cl)c3)n12 [Example 117, 6-(3-Chlorobenzyl)-N-(2-hydroxyethyl)-1-methyl-6H-pyrrolo[2,3-e][1,2,4]triazolo[4,3-a]pyridine-7-carboxamide trifluoroacetate salt] | ≥ 6.00
Cc1nnc2ccc3c(cc(C(=O)NCCN4CCOCC4)n3Cc3cccc(Cl)c3)n12 [Example 119, 6-(3-Chlorobenzyl)-1-methyl-N-(2-morpholin-4-ylethyl)-6H-pyrrolo[2,3-e][1,2,4]triazolo[4,3-a]pyridine-7-carboxamide trifluoroacetate salt] | ≥ 6.00
CCNC(=O)c1cc2c(ccc3nnc(C)n32)n1Cc1cccc(CN2CCC2)c1 [Example 121, 6-[3-(Azetidin-1-ylmethyl)benzyl]-N-ethyl-1-methyl-6H-pyrrolo[2,3-e][1,2,4]triazolo[4,3-a]pyridine-7-carboxamide bis(trifluoroacetate) salt] | ≥ 6.00
CNC(=O)c1cc2c(ccc3nnc(C)n32)n1Cc1cccc(CN2CCC2)c1 [Example 122, 6-[3-(Azetidin-1-ylmethyl)benzyl]-N,1-dimethyl-6H-pyrrolo[2,3-e][1,2,4]triazolo[4,3-a]pyridine-7-carboxamide bis(trifluoroacetate) salt] | 5.00 to 6.00
Cc1nnc2ccc3c(cc(C(=O)NCCCO)n3Cc3ccccc3)n12 [Example 123, 6-Benzyl-N-(3-hydroxypropyl)-1-methyl-6H-pyrrolo[2,3-e][1,2,4]triazolo[4,3-a]pyridine-7-carboxamide trifluoroacetate salt] | ≥ 6.00
Cc1nnc2ccc3c(cc(C(=O)NCC(C)C)n3Cc3ccccc3)n12 [Example 125, 6-Benzyl-N-isobutyl-1-methyl-6H-pyrrolo[2,3-e][1,2,4]triazolo[4,3-a]pyridine-7-carboxamide trifluoroacetate] | ≥ 6.00
Cc1nnc2ccc3c(cc(C(=O)NCc4ccncc4)n3Cc3ccccc3)n12 [Example 126, 6-Benzyl-1-methyl-N-(pyridin-4-ylmethyl)-6H-pyrrolo[2,3-e][1,2,4]triazolo[4,3-a]pyridine-7-carboxamide bis(trifluoroacetate) salt] | ≥ 6.00
Cc1nnc2ccc3c(cc(C(=O)NCCCO)n3Cc3cccc(Cl)c3)n12 [Example 127, 6-(3-Chlorobenzyl)-N-(3-hydroxypropyl)-1-methyl-6H-pyrrolo[2,3-e][1,2,4]triazolo[4,3-a]pyridine-7-carboxamide trifluoroacetate salt] | ≥ 6.00
Cc1nnc2ccc3c(cc(C(=O)NCC(C)C)n3Cc3cccc(Cl)c3)n12 [Example 129, 6-(3-Chlorobenzyl)-N-isobutyl-1-methyl-6H-pyrrolo[2,3-e][1,2,4]triazolo[4,3-a]pyridine-7-carboxamide trifluoroacetate salt] | ≥ 6.00

Source: patent US10442803B2, “Tricyclic heterocycles as bet protein inhibitors” (Incyte Corporation, priority 2013, dated 2019)
